Patent US6576640B1, “Benzisoxazoles and phenones as α2-antagonists” (Janssen Pharmaceutica N.V., priority 1998, dated 2003)

Tests used:
[1] = target: T1, cloned human α2A receptors (Homo sapiens, UniProt P08913); test: In vitro radioligand binding affinity for α2A receptor (3H-rauwolscine competition); conditions: read-out: dissociation: IC50 value for the α2a receptor
T1 construct: expressed in transfected cells; host or cells: Chinese Hamster Ovary (CHO) cells
T1 sequence (P08913 1-465): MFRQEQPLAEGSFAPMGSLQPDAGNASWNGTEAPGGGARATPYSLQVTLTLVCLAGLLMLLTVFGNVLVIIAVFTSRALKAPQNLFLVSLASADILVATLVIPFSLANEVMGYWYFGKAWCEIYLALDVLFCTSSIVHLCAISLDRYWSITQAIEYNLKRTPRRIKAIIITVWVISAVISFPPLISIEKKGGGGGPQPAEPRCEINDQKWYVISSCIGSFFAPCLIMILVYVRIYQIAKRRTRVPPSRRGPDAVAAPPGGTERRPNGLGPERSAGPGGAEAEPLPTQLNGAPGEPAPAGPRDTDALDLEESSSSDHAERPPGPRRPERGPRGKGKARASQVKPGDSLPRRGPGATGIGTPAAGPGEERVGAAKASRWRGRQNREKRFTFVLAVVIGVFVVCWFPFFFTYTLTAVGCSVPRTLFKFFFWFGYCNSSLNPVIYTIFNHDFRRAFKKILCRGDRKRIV
Procedure: The interaction of the compounds of formula (I) with α2 receptors was assessed in in vitro radioligand binding experiments.
In general, a low concentration of a radioligand with a high binding affinity for a particular receptor is incubated with a sample of a tissue preparation enriched in a particular receptor or with a preparation of cells expressing cloned human receptors in a buffered medium. During the incubation, the radioligand binds to the receptor. When equilibrium of binding is reached, the receptor bound radioactivity is separated from the non-bound radioactivity, and the receptor bound activity is counted. The interaction of the test compounds with the receptor is assessed in competition binding experiments. Various concentrations of the test compound are added to the incubation mixture containing the receptor preparation and the radioligand. Binding of the radioligand will be inhibited by the test compound in proportion to its binding affinity and its concentration.
The radioligand used for α2A, α2B and α2C receptor binding is ^3H-rauwolscine and the receptor preparation used is the Chinese Hamster Ovary (CHO) cell expressing cloned human α2A, α2B and α2C receptors.

dopamine D2 receptor = dopamine D2 receptor (Homo sapiens, UniProt P14416); test: Receptor binding affinity for dopamine D2 (dissociation α2a / D2); conditions: for Ratio D2/α2a (dissociation between the two receptors): ratio of IC50 D2 to IC50 α2a; for IC50: receptor binding affinity, dopamine D2
Text: As already mentioned above, dopamine D2 antagonism may lead to an increased risk of EPS. Thus, the larger the dissociation between α2a and D2, the better. The columns headed “dissociation” show the IC50 value in molar (M) for the α2a receptor and the D2 receptor. By “Ratio” is meant the ratio D2/αa and this is an indication for the dissociation between said two receptors.

Chain of dopamine D2 receptor (P14416 whole entry, species assumed): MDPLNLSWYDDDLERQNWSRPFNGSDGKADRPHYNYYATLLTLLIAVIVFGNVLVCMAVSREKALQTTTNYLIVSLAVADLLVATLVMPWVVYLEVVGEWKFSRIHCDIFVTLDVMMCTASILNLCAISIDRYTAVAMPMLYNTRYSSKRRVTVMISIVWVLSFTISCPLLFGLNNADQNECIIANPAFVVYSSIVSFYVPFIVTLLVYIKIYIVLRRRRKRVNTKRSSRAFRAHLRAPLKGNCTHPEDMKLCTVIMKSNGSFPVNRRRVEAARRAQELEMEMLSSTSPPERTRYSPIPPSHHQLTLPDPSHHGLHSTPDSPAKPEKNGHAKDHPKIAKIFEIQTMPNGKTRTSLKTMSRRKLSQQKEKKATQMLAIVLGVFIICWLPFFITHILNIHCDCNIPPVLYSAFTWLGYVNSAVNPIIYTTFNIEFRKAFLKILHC

SMILES | IC50 [1] | Ratio D2/α2a (dissociation between the two receptors) (dopamine D2 receptor) | IC50 (dopamine D2 receptor) | melting point
O=C(CCCCCN1CCc2[nH]c3ccccc3c2C1)c1ccc(F)cc1 [Comp. 1] | 0.005 µM | 79 | 0.4 µM | 190 °C
O=C(CCCCCN1CCc2oc3ccccc3c2C1)c1ccc(F)cc1 [Comp. 2, 1-(4-fluorophenyl)-6-(1,2,3,4-tetrahydrobenzofuro[3,2-c]pyridin-2-yl)-1-hexanone (E)-2-butenedioate (1:1)] | 0.00026 µM | 1950 | 0.5 µM | 
O=C(CCCN1CCc2[nH]c3ccccc3c2C1)c1ccc(F)cc1 [reference compound] | 0.041 µM | 2.5 | 0.1 µM | 
O=C(CCCN1CCc2oc3ccccc3c2C1)c1ccc(F)cc1 [reference compound] | 0.0021 µM | 102 | 0.21 µM | 
